Results taken from US20260256792A1, “TREATMENT OF CHRONIC SPONTANEOUS URTICARIA BY ADMINISTERING (R)-2-[3-[4-AMINO-3-(2-FLUORO-4-PHENOXY-PHENYL)PYRAZOLO[3,4-D]PYRIMIDIN-1-YL]PIPERIDINE-1-CARBONYL]-4-METHYL-4-[4-(OXETAN-3-YL)PIPERAZIN-1-YL]PENT-2-ENENITRILE” (priority 2023, published 2026).

System: moderate-to-severe chronic spontaneous urticaria (CSU)
Experiment: Phase 2 CSU study: itch severity score over 7 days (ISS7)
Format: in vivo, human
Excerpt: The study comprises a 12 week, randomized, double-blind, placebo-controlled, multi-center, dose-ranging efficacy and safety phase, followed by a 40 week open label extension (OLE) phase (see FIG. 1). The study consists of three phases and an optional OLE phase. […] Clinically, CSU is characterized by the spontaneous and recurrent appearance of pruritic hives. The proposed primary endpoints were the UAS7 at Week 12 in EU and EU reference countries and the ISS7 in the US. Regardless of where a participant was from, all assessments were the same. The UAS7 score is a composite score containing both the HSS7 and the ISS7. This allowed a global assessment of the two key components of urticaria: hives and itch. […] The UAS is a validated PRO measure. […] The daily UAS scores range from 0 to 6 point/day. […] Patients were to complete the UAS using the e-diary. […] The following secondary endpoints were to be analyzed using the same approach as for the primary endpoint: • Change from baseline in UAS7 at Week 4 • Change from baseline in UAS7 at Week 12 (for US and US reference countries) • Change from baseline in ISS7 at Week 12 (except US and US reference countries) • Change from baseline in HSS7 at Week 12

[1] = Omalizumab-naïve population, 400 mg BID (N = 35), double-blind period, last week block of Table 28 (week head not shown), WOCF imputation
[2] = Omalizumab-naïve population, 400 mg QPM (N = 37), double-blind period, last week block of Table 28 (week head not shown), WOCF imputation
[3] = Omalizumab-naïve population, 400 mg TID (N = 35), double-blind period, last week block of Table 28 (week head not shown), WOCF imputation
[4] = Patients with prior omalizumab use incl. incomplete responders, 400 mg TID (N = 6), double-blind period, last week block of Table 28 (week head not shown), WOCF imputation
[5] = Week 1, 400 mg BID, Omalizumab-Naïve
[6] = Week 1, 400 mg BID, Prior Omalizumab Use
[7] = Week 1, 400 mg QPM, Omalizumab-Naïve
[8] = Week 1, 400 mg QPM, Prior Omalizumab Use
[9] = Week 1, 400 mg TID, Omalizumab-Naïve
[10] = Week 1, 400 mg TID, Prior Omalizumab Use
[11] = Week 2, 400 mg BID, Omalizumab-Naïve

With `CC(C)(C=C(C#N)C(=O)N1CCC[C@@H](n2nc(-c3ccc(Oc4ccccc4)cc3F)c3c(N)ncnc32)C1)N1CCN(C2COC2)CC1` [rilzabrutinib, (R)-2-[3-[4-amino-3-(2-fluoro-4-phenoxy-phenyl)pyrazolo[3,4-d]pyrimidin-1-yl]piperidine-1-carbonyl]-4-methyl-4-[4-(oxetan-3-yl)piperazin-1-yl]pent-2-enenitrile] the “ISS7 Post-baseline Mean (SD)” value (Omalizumab-Naïve, 400 mg TID, Week 5) was 6.92 (5.87), the “ISS7 Post-baseline Mean (SD)” value (Omalizumab-Naïve, 400 mg TID, Week 7) was 7.14 (5.35) and the “ISS7 Post-baseline Mean (SD)” value (Omalizumab-Naïve, 400 mg TID, Week 8) was 7.24 (5.51). For the same compound, the “ISS7 Post-baseline Mean (SD)” value (Omalizumab-Naïve, 400 mg TID, Week 9) was 6.68 (5.31), the “ISS7 Post-baseline Mean (SD)” value (Omalizumab-Naïve, 400 mg TID, Week 10) was 6.75 (5.25) and the “ISS7 Post-baseline Mean (SD)” value (Omalizumab-Naïve, 400 mg TID, Week 11) was 6.99 (5.53). For the same compound, the “ISS7 Post-baseline Mean (SD)” value (Omalizumab-Naïve, 400 mg TID, Week 12) was 5.77 (5.26), the “ISS7 Change from baseline Mean (SD)” value [1] was −6.60 (7.33) and the “ISS7 Change from baseline Median” value [1] was −8.00. For the same compound, the “ISS7 Percent change from baseline Mean (SD)” value (“ISS7 Percent change … (SD)” for short) [1] was −46.22 (56.25) %, the “ISS7 Percent change from baseline Median” value [1] was −53.33% and the “ISS7 change from baseline, Max” value [1] was 2.0. For the same compound, the “ISS7 change from baseline, Min” value [1] was −14.0, the “ISS7 change from baseline, Q1” value [1] was −13.00 and the “ISS7 change from baseline, Q3” value [1] was 0.00. For the same compound, the “ISS7 percent change from baseline, Max” value [1] was 22.2%, the “ISS7 percent change from baseline, Min” value [1] was −100.0% and the “ISS7 percent change from baseline, Q1” value [1] was −100.00%. The “ISS7 percent change from baseline, Q3” value [1] was 0.00%, the “ISS7 Change from baseline Mean (SD)” value [2] was −11.40 (8.46) and the “ISS7 Change from baseline Median” value [2] was −14.00. The “ISS7 Percent change … (SD)” value [2] was −66.19 (45.96) %, the “ISS7 Percent change from baseline Median” value [2] was −83.33% and the “ISS7 change from baseline, Max” value [2] was 0.0. The “ISS7 change from baseline, Min” value [2] was −20.0, the “ISS7 change from baseline, Q1” value [2] was −19.00 and the “ISS7 change from baseline, Q3” value [2] was 0.00. For the same compound, the “ISS7 percent change from baseline, Max” value [2] was 0.0%, the “ISS7 percent change from baseline, Min” value [2] was −100.0% and the “ISS7 percent change from baseline, Q1” value [2] was −100.00%. For the same compound, the “ISS7 percent change from baseline, Q3” value [2] was 0.00%, the “ISS7 Change from baseline Mean (SD)” value [3] was −6.20 (3.70) and the “ISS7 Change from baseline Median” value [3] was −7.00. For the same compound, the “ISS7 Percent change … (SD)” value [3] was −38.05 (24.78) %, the “ISS7 Percent change from baseline Median” value [3] was −47.37% and the “ISS7 change from baseline, Max” value [3] was 0.0. For the same compound, the “ISS7 change from baseline, Q1” value [3] was −9.00, the “ISS7 change from baseline, Q3” value [3] was −6.00 and the “ISS7 percent change from baseline, Max” value [3] was 0.0%. For the same compound, the “ISS7 percent change from baseline, Min” value [3] was −64.3%, the “ISS7 percent change from baseline, Q1” value [3] was −50.00% and the “ISS7 percent change from baseline, Q3” value [3] was −28.57%. The “ISS7 Change from baseline Mean (SD)” value [4] was −1.50 (2.12), the “ISS7 Change from baseline Median” value [4] was −1.50 and the “ISS7 Percent change … (SD)” value [4] was −18.75 (26.52) %. For the same compound, the “ISS7 Percent change from baseline Median” value [4] was −18.75%, the “ISS7 change from baseline, Max” value [4] was 0.0 and the “ISS7 change from baseline, Min” value [4] was −3.0. For the same compound, the “ISS7 change from baseline, Q1” value [4] was −3.00, the “ISS7 change from baseline, Q3” value [4] was 0.00 and the “ISS7 percent change from baseline, Max” value [4] was 0.0%. The “ISS7 percent change from baseline, Min” value [4] was −37.5%, the “ISS7 percent change from baseline, Q1” value [4] was −37.50% and the “ISS7 percent change from baseline, Q3” value [4] was 0.00%. The “ISS7 Change from baseline Mean (SD)” value [5] was −4.94 (4.65), the “ISS7 Change from baseline Median” value [5] was −4.00 and the “ISS7 Median” value [5] was 12.00. For the same compound, the “ISS7 Percent change … (SD)” value [5] was −33.91 (34.62) %, the “ISS7 Percent change from baseline Median” value [5] was −25.00% and the “ISS7 Change from baseline Mean (SD)” value [6] was −6.33 (5.82). The “ISS7 Change from baseline Median” value [6] was −4.50, the “ISS7 Median” value [6] was 13.00 and the “ISS7 Percent change … (SD)” value [6] was −35.93 (34.83) %. The “ISS7 Percent change from baseline Median” value [6] was −23.02%, the “ISS7 Change from baseline Mean (SD)” value [7] was −3.30 (4.93) and the “ISS7 Change from baseline Median” value [7] was −3.00. For the same compound, the “ISS7 Mean (SD)” value [7] was 13.08 (4.52), the “ISS7 Median” value [7] was 14.00 and the “ISS7 Percent change … (SD)” value [7] was −17.96 (28.66) %. The “ISS7 Percent change from baseline Median” value [7] was −19.05%, the “ISS7 Change from baseline Mean (SD)” value [8] was −8.00 (NC) and the “ISS7 Change from baseline Median” value [8] was −8.00. The “ISS7 Mean (SD)” value [8] was 13.00 (NC), the “ISS7 Median” value [8] was 13.00 and the “ISS7 Percent change … (SD)” value [8] was −38.10 (NC) %. For the same compound, the “ISS7 Percent change from baseline Median” value [8] was −38.10%, the “ISS7 Change from baseline Mean (SD)” value [9] was −6.17 (5.49) and the “ISS7 Change from baseline Median” value [9] was −5.00. For the same compound, the “ISS7 Mean (SD)” value [9] was 9.51 (5.64), the “ISS7 Median” value [9] was 9.00 and the “ISS7 Percent change … (SD)” value [9] was −38.58 (33.51) %. The “ISS7 Percent change from baseline Median” value [9] was −31.37%, the “ISS7 Change from baseline Mean (SD)” value [10] was −9.67 (5.32) and the “ISS7 Change from baseline Median” value [10] was −9.00. For the same compound, the “ISS7 Mean (SD)” value [10] was 7.33 (5.43), the “ISS7 Median” value [10] was 7.00 and the “ISS7 Percent change … (SD)” value [10] was −58.16 (26.72) %. The “ISS7 Percent change from baseline Median” value [10] was −66.07%, the “ISS7 Change from baseline Mean (SD)” value [11] was −5.00 (4.40) and the “ISS7 Change from baseline Median” value [11] was −5.00. The “ISS7 Mean (SD)” value [11] was 10.32 (5.64).
